The results in this text go back to patent US6855710B2, “Substituted indolines with an inhibitory effect on various kinases and complexes of CDKs” (Boehringer Ingelheim Pharma KG, priority 1998, dated 2005).

One may read the melting point as the temperature, or range, at which the solid turns liquid.

For `COCCN(C)CC(=O)N(C)c1ccc(N/C(=C2\C(=O)Nc3ccccc32)c2ccccc2)cc1` [Example 372, (Z)-3-{1-[4-(N—(N-(2-methoxyethyl)-N-methyl-aminomethylcarbonyl)-N-methyl-amino)-phenylamino]-1-phenyl-methylidene}-2-indolinone], the melting point is 197 to 199 °C.

On to `CC(C)(C)OC(=O)NCc1ccc(N/C(=C2\C(=O)Nc3ccc([N+](=O)[O-])cc32)c2ccc(CN)cc2)cc1` [Example 148, (Z)-3-[1-(4-tert.butoxycarbonylaminomethyl-phenylamino)-1-(4-aminomethyl-phenyl)-methylidene]-5-nitro-2-indolinone], for which the melting point was in the range of 220 to 223 °C.

`CN(C)C(=O)CN(c1ccc(N/C(=C2\C(=O)Nc3ccc([N+](=O)[O-])cc32)c2ccccc2)cc1)S(=O)(=O)Cc1ccccc1` [Example 303, (Z)-3-{1-[4-(N-(dimethylaminocarbonylmethyl)-N-benzylsulphonyl-amino)-phenylamino]-1-phenyl-methylidene}-5-nitro-2-indolinone] came in with a melting point of 159 to 161 °C.

For the compound `CN(CCCOc1ccc(N/C(=C2\C(=O)Nc3ccccc32)c2ccccc2)cc1)Cc1ccccc1` [Example 288, (Z)-3-{1-[4-(3-(N-benzyl-N-methyl-amino)-propyloxy)-phenylamino]-1-phenyl-methylidene}-2-indolinone], the melting point was in the range of 187 to 189 °C.

`O=C1Nc2ccccc2/C1=C(/Nc1ccc(C(=O)N2CCCC2)cc1)c1ccccc1` [Example 386, (Z)-3-{1-[4-(pyrrolidin-1-ylcarbonyl)-phenylamino]-1-phenyl-methylidene}-2-indolinone] gave a melting point of 127 to 129 °C.

In turn, `O=CN(CCN1CCOCC1)c1ccc(N/C(=C2\C(=O)Nc3ccc([N+](=O)[O-])cc32)c2ccccc2)cc1` [Example 333, (Z)-3-{1-[4-(N-(2-morpholinoethyl)-N-formyl-amino)-phenylamino]-1-phenyl-methylidene}-5-nitro-2-indolinone] had a melting point of 207 °C.

With `CN(C(=O)CN1CCCC1)c1ccc(N/C(=C2\C(=O)Nc3ccccc32)c2ccccc2)cc1` [Example 369, (Z)-3-{1-[4-(N-(pyrrolidin-1-ylmethylcarbonyl)-N-methyl-amino)-phenylamino]-1-phenyl-methylidene}-2-indolinone], the melting point lay in the range of 253 to 255 °C.

In turn, `CCC(=O)N(CCN1CCOCC1)c1ccc(N/C(=C2\C(=O)Nc3ccccc32)c2ccccc2)cc1` [Example 349, (Z)-3-{1-[4-(N-(2-morpholinoethyl)-N-propionyl-amino)-phenylamino]-1-phenyl-methylidene}-2-indolinone] registered a melting point of 228 °C.

`CC1CCN(CCc2ccc(N/C(=C3\C(=O)Nc4ccc([N+](=O)[O-])cc43)c3ccccc3)cc2)CC1` [Example 259, (Z)-3-{1-[4-(2-(4-methylpiperidino)-ethyl)-phenylamino]-1-phenyl-methylidene}-5-nitro-2-indolinone]: the melting point was in the range of 252 to 253 °C.

Take `CCC(=O)N(CC(=O)O)c1ccc(N/C(=C2\C(=O)Nc3ccccc32)c2ccccc2)cc1` [Example 357, (Z)-3-{1-[4-(N-carboxymethyl-N-propionyl-amino)-phenylamino]-1-phenyl-methylidene}-2-indolinone]: the melting point is 270 °C (dec.).

Compound `CCCS(=O)(=O)N(CC(=O)N(C)C)c1ccc(N/C(=C2\C(=O)Nc3ccccc32)c2ccccc2)cc1` [Example 305, (Z)-3-{1-[4-(N-(dimethylaminocarbonylmethyl)-N-propylsulphonyl-amino)-phenylamino]-1-phenyl-methylidene}-2-indolinone] registered a melting point of 178 to 180 °C.

In turn, `CC(=O)NCC(=O)N(C)c1ccc(N/C(=C2\C(=O)Nc3ccccc32)c2ccccc2)cc1` [Example 367, (Z)-3-{1-[4-(N-acetylaminomethylcarbonyl-N-methyl-amino)-phenylamino]-1-phenyl-methylidene}-2-indolinone] came in with a melting point of 255 to 256 °C.

`CCOC(=O)COc1ccc(N/C(=C2\C(=O)Nc3ccccc32)c2ccccc2)cc1` [Example 289, (Z)-3-{1-[4-(ethyloxycarbonylmethyloxy)-phenylamino]-1-phenyl-methylidene}-2-indolinone] gave a melting point of 175 to 177 °C.

As to `NC(=O)C1CCN(Cc2ccc(N/C(=C3\C(=O)Nc4ccc([N+](=O)[O-])cc43)c3ccccc3)cc2)CC1` [Example 247, (Z)-3-{1-[4-(4-aminocarbonyl-piperidinomethyl)-phenylamino]-1-phenyl-methylidene}-5-nitro-2-indolinone], the melting point lay within 296 to 297 °C.

In the case of `CCOC(=O)CCNCc1ccc(N/C(=C2\C(=O)Nc3ccc([N+](=O)[O-])cc32)c2ccccc2)cc1` [Example 241, (Z)-3-{1-[4-(2-ethoxycarbonyl-ethylaminomethyl)-phenylamino]-1-phenyl-methylidene}-5-nitro-2-indolinone], the melting point fell in the range of 129 to 131 °C.

`CC(=O)c1ccc(N/C(=C2\C(=O)Nc3ccccc32)c2ccccc2)cc1` [Example 60, (Z)-3-[1-(4-acetylphenylamino)-1-phenyl-methylidene]-2-indolinone] returned a melting point of 207 to 209 °C.

`CCNCCc1ccc(N/C(=C2\C(=O)Nc3ccc([N+](=O)[O-])cc32)c2ccccc2)cc1` [Example 255, (Z)-3-{1-[4-(2-ethylamino-ethyl)-phenylamino]-1-phenyl-methylidene}-5-nitro-2-indolinone] registered a melting point of 235 to 237 °C.

`CC(C)C(=O)N(CCN1CCOCC1)c1ccc(N/C(=C2\C(=O)Nc3ccc([N+](=O)[O-])cc32)c2ccccc2)cc1` [Example 336, (Z)-3-{1-[4-(N-(2-morpholinoethyl)-N-isopropylcarbonyl-amino)-phenylamino]-1-phenyl-methylidene}-5-nitro-2-indolinone] displayed a melting point of 254 °C.

With `CN(C)CCN(c1ccc(N/C(=C2\C(=O)Nc3ccccc32)c2ccc(CN)cc2)cc1)S(C)(=O)=O` [Example 426, (Z)-3-{1-[4-(N-(2-dimethylaminoethyl)-N-methylsulphonyl-amino)-phenylamino]-1-(4-aminomethyl-phenyl)-methylidene}-2-indolinone], the melting point lay in the range of 203 to 205 °C.

In the case of `CN1CCN(Cc2cccc(N/C(=C3\C(=O)Nc4ccc([N+](=O)[O-])cc43)c3ccccc3)c2)CC1` [Example 110, (Z)-3-{1-[3-(4-methylpiperazinomethyl)-phenylamino]-1-phenyl-methylidene}-5-nitro-2-indolinone], the melting point fell in the range of 256 to 258 °C.

`O=C(CN1CCOCC1)NCc1ccc(N/C(=C2\C(=O)Nc3ccc([N+](=O)[O-])cc32)c2ccccc2)cc1` [Example 141, (Z)-3-[1-(4-morpholinomethylcarbonylaminomethyl-phenylamino)-1-phenyl-methylidene]-5-nitro-2-indolinone] yielded a melting point of 290 to 295 °C.

`CC(=O)Nc1cccc(N/C(=C2\C(=O)Nc3ccccc32)c2ccccc2)c1` [Example 32, (Z)-3-[1-(3-acetylamino-phenylamino)-1-phenyl-methylidene]-2-indolinone] displayed a melting point of 285 to 288 °C.
